# Data as given in patent US8686043B2, “Heterocyclic sulfonamides, uses and pharmaceutical compositions thereof” (Pfizer Inc., priority 2009, dated 2014).
# System: AMPA receptors
# Test: AMPA ES Cell FLIPR Screen (AMPA Potentiator Assay)
# Type: cell-based, murine
# Conditions: ES cell-derived neurons, FLIPR (Fluo-4), 32 μM AMPA challenge; values marked * are the geometric mean of 2-5 EC50 determinations
# Source text: Growth and Maintenance of ES Cells
# Murine ES cell line E14, with a targeted mutation in the Sox1 gene and a neuroectodermal marker that offers G418 resistance when the Sox1 gene is expressed (Stem Cell Sciences, West Mains Road, Edinburgh, Scotland EH9 3JQ) may be used in all experiments. ES cells may be maintained undifferentiated as previously described (Methods For The Isolation And Maintenance Of Murine Embryonic Stem Cells; Roach-M-L, McNeish-J-D., Methods in Molecular Biology, 185, 1-16 (2002)). Briefly, ES cells may be grown in stem cell culture media comprising a base medium of Knockout™ D-MEM (Invitrogen 5791 Van Allen Way, Carlsbad, Calif. USA 92008), supplemented with 15% ES qualified Fetal Bovine Serum (FBS) (Invitrogen), 0.2 mM L-Glutamine (Invitrogen), 0.1 mM MEM non-essential amino acids (Invitrogen), 30 μg/ml Gentamicin […] (Invitrogen), 1000 U/ml ESGRO™ (CHEMICON International, Inc., 28820 Single Oak Drive, Temecula, Calif. 92590) and 0.1 mM 2-mercaptoethanol (Sigma, 3050 Spruce St., St. Louis, Mo. 63103). ES cells may then be plated on gelatin-coated dishes (BD Biosciences, 2350 Qume Drive, San Jose, Calif. 95131), wherein the media is changed daily and the cells dissociated with 0.05% Trypsin EDTA (Invitrogen) every other day.
# Neural In Vitro Differentiation of ES Cells
# Embryoid Body Formation: Prior to embryoid body (EB) formation the ES cells may be weaned from FBS onto Knockout Serum Replacement™ (KSR) (Invitrogen). To form EBs, ES cells may be dissociated into a single cell suspension, then 3×10^6 cells plated in bacteriology dishes (Nunc 4014) and grown as a suspension culture in NeuroEB-I medium that consisted of Knockout™ D-MEM (Invitrogen), supplemented with 10% KSR (Invitrogen), 0.2 mM L-Glutamine (Invitrogen), 0.1 mM MEM non-essential amino acids (Invitrogen), 30 μg/ml Gentamicin (Invitrogen), 1000 U/ml ESGRO™ (CHEMICON International, Inc.), 0.1 mM 2-mercaptoethanol (Sigma) and 150 ng/ml Transferrin (Invitrogen). The plates may then be put on a Stovall Belly Button™ shaker in an atmospheric oxygen incubator. The media may be changed on day 2 of EB formation with NeuroEB-I and on day 4 with NeuroEB-II (NeuroEB-I plus 1 μg/ml mNoggin (R&D Systems, 614 McKinley Place N.E. Minneapolis, Minn. 55413)
# Neuronal Precursor Selection and Expansion: On day 5 of EB formation, EBs may be dissociated with 0.05% Trypsin EDTA, and 4×10^6 cells/100 mm dish may then be plated on Laminin coated tissue culture dishes in NeuroEB-II-G418 medium that consisted of a base medium of a 1:1 mixture of D-MEM/F12 supplemented with N2 supplements and NeuroBasal Medium supplemented with B27(I ASSUME THIS IS THE VITAMIN) supplement and 0.1 mM L-Glutamine (all from Invitrogen). The base medium may then be supplemented with 10 ng/ml bFGF (Invitrogen), 1 μg/ml mNoggin, 500 ng/ml SHH-N (IS THIS SONIC HEDGEHOG FROM ProSpecBio Rehovot Science Park, P.O. BOX 398, Rehovot 76103, Israel), 100 ng/ml FGF-8b (R&D Systems), 1 μg/ml Laminin and 200 μg/ml G418 (Invitrogen) for selection of neuronal precursors expressing Sox-1. The plates may then be put in an incubator containing 2% oxygen and maintained in these conditions. During the 6-day selection period, the NeuroEB-II ([…]) media should be changed daily. On day 6, the surviving neuronal precursor foci may then be dissociated with 0.05% Trypsin EDTA and the cells plated at a density of 1.5×10^6 cells/100 mm Laminin coated dish in Neuroll ([…])-G418 medium. The cells may then be dissociated every other day for expansion, and prepared for cryopreservation at passage 3 or 4. The cryopreservation medium typically contains 50% KSR, 10% dimethyl sulfoxide (DMSO) (Sigma) and 40% Neurol([…])-G418 medium. Neuronal precursors may be cryopreserved at a concentration of 4×10^6 cells/ml and 1 ml/cryovial in a controlled rate freezer overnight then transferred to an ultra-low freezer or liquid nitrogen for long-term storage. […]
row,Structure (SMILES),EC50
1,"CC(C)S(=O)(=O)N[C@H]1CCC[C@H]1Oc1ccc(-c2ccccc2C#N)cc1 [Example 5, N-{(1S,2R)-2-[(2′-cyanobiphenyl-4-yl)oxy]cyclopentyl}propane-2-sulfonamide]",535 nM
2,"CC(C)S(=O)(=O)N[C@H]1COC[C@H]1Oc1ccc(-c2ccc(O)cc2)cc1 [Example 18, N-{(3S,4S)-4-[(4′-hydroxybiphenyl-4-yl)oxy]tetra hydrofuran-3-yl}propane-2-sulfonamide]",1180 nM
3,"CCOc1cc(F)ccc1-c1ccc(O[C@@H]2COC[C@@H]2NS(=O)(=O)C(C)C)cc1 [Example 19, N-{(3S,4S)-4-[(2′-ethoxy-4′-fluorobiphenyl-4-yl)oxy]tetra hydrofuran-3-yl}propane-2-sulfonamide]",248 nM
4,"CC(C)S(=O)(=O)N[C@H]1COC[C@H]1Oc1ccc(-c2cncnc2)cc1 [Example 22, N-[(3S,4S)-4-(4-pyrimidin-5-ylphenoxy)tetrahydrofuran-3-yl]propane-2-sulfonamide]",861 nM
5,"CC(C)S(=O)(=O)N[C@H]1CCC[C@H]1Oc1ccc(-c2ccccc2)c(F)c1 [Example 29, N-{(1S,2R)-2-[(2-fluorobiphenyl-4-yl)oxy]cyclopentyl} propane-2-sulfonamide]",521 nM
6,"CC(C)S(=O)(=O)N[C@H]1CCC[C@H]1Oc1ccc(-c2ccc(F)cc2C#N)c(F)c1 [Example 30, N-{(1S,2R)-2-[(2′-cyano-2,4′-difluorobiphenyl-4-yl)oxy]cyclopentyl}propane-2-sulfonamide]",349 nM
7,"CC(C)S(=O)(=O)N[C@H]1CCC[C@H]1Oc1ccc(-c2ccc(C#N)s2)c(F)c1 [Example 32, N-{(1S,2R)-2-[4-(5-cyano-2-thienyl)-3-fluorophenoxy]cyclopentyl} propane-2-sulfonamide]",1400 nM
8,"CC(C)S(=O)(=O)N[C@H]1CCC[C@H]1Oc1ccc(-c2cccc(C(=O)NC3CC3)c2)c(F)c1 [Example 33, N-cyclopropyl-2′-fluoro-4′-({(1R,2S)-2-[(isopropylsulfonyl)amino]cyclopentyl}oxy) biphenyl-3-carboxamide]",623 nM
9,"CC(C)S(=O)(=O)N[C@H]1CCC[C@H]1Oc1ccc(-c2ccc(CCNS(C)(=O)=O)cc2)c(F)c1 [Example 34, N-{(1S,2R)-2-[(2-fluoro-4′-{2-[(methylsulfonyl)amino]ethyl}biphenyl-4-yl)oxy]cyclopentyl} propane-2-sulfonamide]",3220 nM
10,"CC(C)S(=O)(=O)N[C@H]1CCCC[C@H]1Oc1ccc(-c2ccc(F)cc2C#N)c(F)c1 [Example 36, N-{(1S,2R)-2-[(2′-cyano-2,4′-difluorobiphenyl-4-yl)oxy]cyclohexyl} propane-2-sulfonamide]",1610 nM
11,"CC(C)S(=O)(=O)N[C@H]1CCCC[C@H]1Oc1ccc(-c2ccc(C#N)s2)c(F)c1 [Example 37, N-{(1S,2R)-2-[4-(5-cyano-2-thienyl)-3-fluorophenoxy]cyclohexyl} propane-2-sulfonamide]",1720 nM
12,"CC(C)S(=O)(=O)N[C@H]1CCCC[C@H]1Oc1ccc(N2CCCC2)cc1 [Example 38, N-[(1S,2R)-2-(4-pyrrolidin-1-ylphenoxy)cyclohexyl] propane-2-sulfonamide]",327 nM
13,"CC(C)S(=O)(=O)N[C@H]1CCCC[C@H]1Oc1ccc(-c2ccccc2OCC(F)(F)F)nc1 [Example 40, N-[(1S,2R)-2-({6-[2-(2,2,2-trifluoroethoxy)phenyl]pyridin-3-yl}oxy)cyclohexyl] propane-2-sulfonamide]",148 nM
14,"CC(C)S(=O)(=O)N[C@H]1CCCC[C@H]1Oc1ccc(-c2ccc(C#N)s2)nc1 [Example 42, N-[(1S,2R)-2-{[6-(5-cyano-2-thienylpyridin)-3-yl]oxy}cyclohexyl] propane-2-sulfonamide]",2780 nM
15,"CC(C)S(=O)(=O)N[C@H]1CCCC[C@H]1Oc1ccc(N2CCCCC2)cc1 [Example 54, N-[(1S,2R)-2-(4-piperidin-1-ylphenoxy)cyclohexyl]pro-pane-2-sulfonamide]",503 nM

# Further lines, results first:
row,EC50,Structure (SMILES)
1,1540 nM,"CC(C)S(=O)(=O)N[C@H]1CCC[C@H]1Oc1ccc(-c2ccc(C#N)s2)cc1 [Example 6, N-{(1S,2R)-2-[4-(5-cyano-2-thienyl)phenoxy]cyclopentyl}propane-2-sulfonamide]"
2,157 nM,"CC(C)S(=O)(=O)N[C@H]1CCCC[C@H]1Oc1ccc(-c2ccccc2C#N)cc1 [Example 7, N-{(1S,2R)-2-[(2′-cyanobiphenyl-4-yl)oxy]cyclohexyl}propane-2-sulfonamide]"
3,729 nM,"Cc1cc(F)ccc1-c1ccc(O[C@@H]2COC[C@@H]2NS(=O)(=O)C(C)C)cc1 [Example 20, N-{(3S,4S)-4-[(4′-fluoro-2′-methylbiphenyl-4-yl)oxy]tetra hydrofuran-3-yl}propane-2-sulfonamide]"
4,239 nM,"CC(C)S(=O)(=O)N[C@H]1COC[C@H]1Oc1ccc(-c2ccc(F)cc2F)cc1 [Example 21, N-{(3S,4S)-4-[(2′,4′-difluorobiphenyl-4-yl)oxy]tetra hydrofuran-3-yl}propane-2-sulfonamide]"
5,2960 nM,"CCOc1ccccc1-c1ccc(O[C@@H]2CCC[C@@H]2NS(=O)(=O)C(C)C)cc1 [Example 25, N-{(1S,2R)-2-[(2′-ethoxybiphenyl-4-yl)oxy]cyclopentyl} propane-2-sulfonamide]"
6,1120 nM,"CC(C)S(=O)(=O)N[C@H]1CCC[C@H]1Oc1ccc(-c2ccccc2)cc1 [Example 26, N-[(1S,2R)-2-(biphenyl-4-yloxy)cyclopentyl] propane-2-sulfonamide]"
7,857 nM,"CC(C)S(=O)(=O)N[C@H]1CCC[C@H]1Oc1ccc(N2CCCC2)cc1 [Example 27, N-[(1S,2R)-2-(4-pyrrolidin-1-ylphenoxy)cyclopentyl] propane-2-sulfonamide]"
8,651 nM,"CC(C)S(=O)(=O)N[C@H]1CCC[C@H]1Oc1ccc(-c2ccc(C(=O)O)cc2C#N)cc1 [Example 28, 2-cyano-4′-({(1R,2S)-2-[(isopropylsulfonyl)amino]cyclopentyl}oxy) biphenyl-4-carboxylic acid]"
9,327 nM,"CCOc1ccccc1-c1ccc(O[C@@H]2CCC[C@@H]2NS(=O)(=O)C(C)C)cc1F [Example 31, N-{(1S,2R)-2-[(2′-ethoxy-2-fluorobiphenyl-4-yl)oxy]cyclopentyl} propane-2-sulfonamide]"
10,525 nM,"CC(C)S(=O)(=O)N[C@H]1CCCC[C@H]1Oc1ccc(-c2ccccc2C#N)c(F)c1 [Example 35, N-{(1S,2R)-2-[(2′-cyano-2-fluorobiphenyl-4-yl)oxy]cyclohexyl} propane-2-sulfonamide]"
11,1420 nM,"CCOc1ccccc1-c1ccc(O[C@@H]2CCCC[C@@H]2NS(=O)(=O)C(C)C)cc1 [Example 39, N-{(1S,2R)-2-[(2′-ethoxybiphenyl-4-yl)oxy]cyclohexyl} propane-2-sulfonamide]"
12,331 nM,"CC(C)S(=O)(=O)N[C@H]1CCCC[C@H]1Oc1ccc(-c2ccccc2OC(F)(F)F)nc1 [Example 41, N-[(1S,2R)-2-({6-[2-(trifluoromethoxy)phenyl]pyridin-3-yl}oxy)cyclohexyl] propane-2-sulfonamide]"

# Same assay, conditions: title compound versus its enantiomer
row,Structure (SMILES),biological activity improved over that of its enantiomer
1,"CC(C)S(=O)(=O)N[C@H]1CCCC[C@H]1Oc1ccc(-c2ccccc2C#N)cc1 [Example 7, N-{(1S,2R)-2-[(2′-cyanobiphenyl-4-yl)oxy]cyclohexyl}propane-2-sulfonamide]",> 150 times

# Same assay, conditions: title compound versus its enantiomer prepared from the (1R,2S) bromide
row,Structure (SMILES),potency compared with its enantiomer
1,"CC(C)S(=O)(=O)N[C@H]1CCC[C@H]1Oc1ccc(-c2ccccc2C#N)cc1 [Example 5, N-{(1S,2R)-2-[(2′-cyanobiphenyl-4-yl)oxy]cyclopentyl}propane-2-sulfonamide]",significantly more potent than its enantiomer
